Measurements published in patent publication US10392348B2, “2-oxo-3,4-dihydroquinoline compounds as plant growth regulators” (Syngenta Participations AG, priority 2015, dated 2019).
Read-outs that look alike come from different tables or passages of the source.

How the values were obtained:
[1] = system: corn plants (variety NK OCTET); assay: Reduced plant water use in corn (foliar spray, repeated weighing of pots); type: in vivo; settings: Zea mays, corn plants sprayed at 500 μM, average of 6 pots
Summary of the method: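 Water use was summed over 0–2.5 days after application, from repeated day-time weighings of pots and corrected by ANCOVA for pre-application baseline. Plants, 12 days old, received foliar EC sprays diluted with water plus 0.4% rape seed methyl ester adjuvant.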

[2] = system: soybean plants (variety S20-G7); assay: Reduced plant water use in soybean (foliar spray, repeated weighing of pots); type: in vivo; settings: Glycine max, foliar, Table B1, sprayed at 500 μM, vs negative control
Summary of the method: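 Daytime water use was tracked by weighing pots of 12-day-old soybean after foliar spray of compound formulated as EC plus EXTRAVON 1 g/20 L. Cumulative total (0-2.5 DAA) sums a.m. and p.m. readings; values baseline-adjusted by covariance analysis against formulation-only negative control.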

[3] = 0 h, water use during day time vs negative control, 0 DAA a.m. (10:30-12:50), read-out: % WU 0 DAA AM
[4] = 0 h, water use during day time vs negative control, 0 DAA p.m. (14:00-19:50), read-out: % WU 0DAA PM
[5] = 24 h, water use during day time vs negative control, 1 DAA a.m. (07:30-12:50), read-out: % WU 1DAA AM
[6] = 24 h, water use during day time vs negative control, 1 DAA p.m. (14:00-19:50), read-out: % WU 1DAA PM
[7] = 48 h, water use during day time vs negative control, 2 DAA a.m. (07:30-12:50), read-out: % WU 2 DAA AM
[8] = 48 h, water use during day time vs negative control, 2 DAA p.m. (14:00-19:50), read-out: % WU 2 DAA PM
[9] = 60 h, cumulative total water use 0-2.5 DAA (sum of the time points) vs negative control, read-out: % WU Total 0 to 2.5 DAA
[10] = 0 h, 0 DAA a.m. (10:30-12:50), read-out: % WU 0 DAA AM
[11] = 24 h, 1 DAA a.m. (7:30-12:50), read-out: % WU 1DAA AM
[12] = 24 h, 1 DAA p.m. (14:00-19:50), read-out: % WU 1DAA PM
[13] = 48 h, 2 DAA a.m. (07:30-12:50), read-out: % WU 2 DAA AM
[14] = 48 h, 2 DAA p.m. (14:00-19:50), read-out: % WU 2 DAA PM
[15] = 60 h, cumulative total WU (0-2.5 DAA), read-out: % WU Total 0 to 2.5 DAA

| melting point [°C] | SMILES | change in vivo at 500 µM [1, 3] [%] | change in vivo at 500 µM [1, 4] [%] | change in vivo at 500 µM [1, 5] [%] | change in vivo at 500 µM [1, 6] [%] | change in vivo at 500 µM [1, 7] [%] | change in vivo at 500 µM [1, 8] [%] | change in vivo at 500 µM [1, 9] [%] | change in vivo at 500 µM [2, 10] [%] | change in vivo at 500 µM [2, 11] [%] | change in vivo at 500 µM [2, 12] [%] | change in vivo at 500 µM [2, 13] [%] | change in vivo at 500 µM [2, 14] [%] | change in vivo at 500 µM [2, 15] [%] |
| --- | --- | --- | --- | --- | --- | --- | --- | --- | --- | --- | --- | --- | --- | --- |
| 150 to 154 | CCCN1C(=O)CCc2cc(CNS(=O)(=O)c3ccsc3)ccc21 [Compound 3.068, N-[(2-oxo-1-propyl-3,4-dihydroquinolin-6-yl)methyl]thiophene-3-sulfonamide] | -25.5 | -24.9 | -15.8 | -13.1 | -8.9 | -9.4 | -14.8 | -46 | -39.3 | -31.6 | -22.3 | -15.3 | -31.6 |
| 169 to 173 | CCCN1C(=O)CCc2cc(CNS(=O)(=O)c3ccc4ccccc4c3)ccc21 [Compound 3.075, N-[(2-oxo-1-propyl-3,4-dihydroquinolin-6-yl)methyl]naphthalene-2-sulfonamide] | -9.8 | -7.9 | -8.2 | -6.4 | -4.9 | -3.3 | -6.3 | -10.8 | -2.1 | -0.6 | -2.1 | -2 | -3.3 |
